# Measurements as given in patent US20080039515A1, “Arylpyrazoles And Methods Of Using Same For Control Of Insect Pests That Bore Into Trees” (The Texas A&M University System, priority 2004, published 2008).
# Where two headings read alike, the source gives them in different places.
# Tested on: Ips engravers beetles
# Assay type: in vivo
# Description: Study Sites: Two 20-year-old, recently thinned loblolly pine plantations were selected in Texas. Trees in one plantation were injected for use in a bolt study (Trial 1). Trees in ½ acre section of the second plantation were injected as part of a single-tree protection study (Trial 2). A staging area also was set up in the second plantation where bolts from the first plantation were exposed to bark beetles and wood borers.
# Population Monitoring: A clear panel of acetate (10 cm wide by 25 cm long) was attached to the center of each bolt after deployment of bolts or 2 m high on standing trees after deployment of pheromone baits to monitor arrival of bark beetles. The top surface of each panel was coated entirely with Stikem Special® trapping compound (Michel and Pelton, Emeryville, Calif.). The traps were left in place for two weeks.
# After 1 (May 24), 3 (July 19) and 5 (September) months post-injection, 5 trees of each treatment were felled and two 1.5 m long bolts were removed from the 3 m and 8 m heights of the bole. Because southern pine beetle (SPB) populations were extremely low in east Texas during the study year, Ips engravers were used as alternative bark beetles for this study. The bolts were transported to a 20-year-old loblolly plantation that was recently thinned and contained fresh slash material. Each bolt was placed about 1 m apart on discarded, dry pine bolts to maximize surface area available for colonization as well as to discourage predation by ground and litter-inhabiting organisms. To facilitate timely bark beetle colonization, packets of bark beetle pheromones (racemic ipsdienol +lanerione combination, ipsenol or cis-verbenol; Phero Tech, Inc., Delta, BC, Canada) were attached separately to three 1 m stakes evenly spaced in the study area. Racemic ipsdienol and cis-verbenol were used with the second series of bolts deployed in July. The packets were removed after 2 weeks when signs of attacks (boring dust) were observed on most test bolts, signaling that naturally-produced pheromones were present.
# Treatment Evaluation: Trial 1. The first and second series of bolts were retrieved 2.5 and 3 weeks, respectively, after deployment, after observing many cerambycid attacks on most of the bolts. In the laboratory, two 10×50 cm strips (total=1000 cm^2) of bark were removed from each bolt. Several measurements were made relating to construction of nuptial chambers and egg galleries and development of brood: • 1. Number of unsuccessful attacks—penetration to phloem, but no egg galleries. • 2. Number of successful attacks—construction of nuptial chamber and at least one egg gallery extending from it. • 3. Number and lengths of egg galleries with brood galleries radiating from them. • 4. Number and lengths of egg galleries without brood galleries. • 5. Cerambycid activity, estimated by overlaying a 100 cm^2 grid over a portion of each bark strip and counting the number of squares overlapping area where cerambycids had fed.
# Treatment efficacy was determined by comparing Ips beetle attacks and egg gallery length and cerambycid feeding on treated and untreated bolts. The data were transformed by log10(x+1) to satisfy criteria for normality and homoscedasticity (Zar 1984) and analyzed by GLM and the Fishers Protected LSD test using the Statview statistical program.
# [1] = 1 month post-injection (May), bolt height 3 m
# [2] = 1 month post-injection (May), bolt height 8 m
# [3] = 3 months post-injection (July), bolt height 3 m
# [4] = 3 months post-injection (July), bolt height 8 m
# [5] = 3 months post-injection, bolt height 3 m
# [6] = 3 months post-injection, bolt height 8 m
# [7] = 5 months post-injection (Sept.), bolt height 3 m
# [8] = 5 months post-injection (Sept.), bolt height 8 m
smiles,measurement,setting,value
O=[N+]([O-])NC1=NCCN1Cc1ccc(Cl)nc1 [Imid],Length of Egg Galleries Total,[1],442.2
same,Length of Egg Galleries With Brood,[1],283.2 cm
same,Length of Egg Galleries With Brood % of Total,[1],64.0%
same,Length of Egg Galleries Without Brood,[1],159.0 cm
same,Length of Egg Galleries Without Brood % of Total,[1],36.0%
same,Mean # of Ips caught/trap,[1],5.6
same,Number of Egg Galleries Total,[1],65.2
same,Number of Egg Galleries With Brood % of Total,[1],46.0%
same,Number of Egg Galleries With Brood No.,[1],30.0
same,Number of Egg Galleries Without Brood % of Total,[1],54.0%
same,Number of Egg Galleries Without Brood No.,[1],35.2
same,Nuptial Chambers Total,[1],18.2
same,Nuptial Chambers With Egg Galleries % of Total,[1],89.0%
same,Nuptial Chambers With Egg Galleries No.,[1],16.2
same,Nuptial Chambers Without Egg Galleries % of Total,[1],11.0%
same,Nuptial Chambers Without Egg Galleries No.,[1],2.0
same,Length of Egg Galleries Total,[2],315.8
same,Length of Egg Galleries With Brood,[2],197.0 cm
same,Length of Egg Galleries With Brood % of Total,[2],62.4%
same,Length of Egg Galleries Without Brood,[2],118.8 cm
same,Length of Egg Galleries Without Brood % of Total,[2],37.6%
same,Mean # of Ips caught/trap,[2],3.8
same,Number of Egg Galleries Total,[2],49.0
same,Number of Egg Galleries With Brood % of Total,[2],39.6%
same,Number of Egg Galleries With Brood No.,[2],19.4
same,Number of Egg Galleries Without Brood % of Total,[2],60.4%
same,Number of Egg Galleries Without Brood No.,[2],29.6
same,Nuptial Chambers Total,[2],15.8
same,Nuptial Chambers With Egg Galleries % of Total,[2],81.0%
same,Nuptial Chambers With Egg Galleries No.,[2],12.8
same,Nuptial Chambers Without Egg Galleries % of Total,[2],19.0%
same,Nuptial Chambers Without Egg Galleries No.,[2],3.0
same,Mean # of Ips caught/trap,[3],2.6
same,Nuptial Chambers Total,[3],10.8
same,Nuptial Chambers With Egg Galleries % of Total,[3],61.1%
same,Nuptial Chambers With Egg Galleries No.,[3],6.6
same,Nuptial Chambers Without Egg Galleries % of Total,[3],38.9%
same,Nuptial Chambers Without Egg Galleries No.,[3],4.2
same,Mean # of Ips caught/trap,[4],2.0
same,Nuptial Chambers Total,[4],9.4
same,Nuptial Chambers With Egg Galleries % of Total,[4],59.6%
same,Nuptial Chambers With Egg Galleries No.,[4],5.6
same,Nuptial Chambers Without Egg Galleries % of Total,[4],40.4%
same,Nuptial Chambers Without Egg Galleries No.,[4],3.8
same,Length of Egg Galleries Total,[5],187.4
same,Length of Egg Galleries With Brood,[5],151.4 cm
same,Length of Egg Galleries With Brood % of Total,[5],80.8%
same,Length of Egg Galleries Without Brood,[5],36.0 cm
same,Length of Egg Galleries Without Brood % of Total,[5],19.2%
same,Number of Egg Galleries Total,[5],20.6
same,Number of Egg Galleries With Brood % of Total,[5],68.9%
same,Number of Egg Galleries With Brood No.,[5],14.2
same,Number of Egg Galleries Without Brood % of Total,[5],31.1%
same,Number of Egg Galleries Without Brood No.,[5],6.4
same,Length of Egg Galleries Total,[6],130.0
same,Length of Egg Galleries With Brood,[6],87.4 cm
same,Length of Egg Galleries With Brood % of Total,[6],67.2%
same,Length of Egg Galleries Without Brood,[6],42.6 cm
same,Length of Egg Galleries Without Brood % of Total,[6],32.8%
same,Number of Egg Galleries Total,[6],17.4
same,Number of Egg Galleries With Brood % of Total,[6],52.9%
same,Number of Egg Galleries With Brood No.,[6],9.2
same,Number of Egg Galleries Without Brood % of Total,[6],47.1%
same,Number of Egg Galleries Without Brood No.,[6],8.2
same,Length of Egg Galleries Total,[7],163.4
same,Length of Egg Galleries With Brood,[7],154.2 cm
same,Length of Egg Galleries With Brood % of Total,[7],94.4%
same,Length of Egg Galleries Without Brood,[7],9.2 cm
same,Length of Egg Galleries Without Brood % of Total,[7],5.6%
same,Mean # of Ips caught/trap,[7],1.6
same,Number of Egg Galleries Total,[7],13.2
same,Number of Egg Galleries With Brood % of Total,[7],89.4%
same,Number of Egg Galleries With Brood No.,[7],11.8
same,Number of Egg Galleries Without Brood % of Total,[7],10.6%
same,Number of Egg Galleries Without Brood No.,[7],1.4
same,Nuptial Chambers Total,[7],4.6
same,Nuptial Chambers With Egg Galleries % of Total,[7],95.7%
same,Nuptial Chambers With Egg Galleries No.,[7],4.4
same,Nuptial Chambers Without Egg Galleries % of Total,[7],4.3%
same,Nuptial Chambers Without Egg Galleries No.,[7],0.2
same,Length of Egg Galleries Total,[8],164.4
same,Length of Egg Galleries With Brood,[8],144.8 cm
same,Length of Egg Galleries With Brood % of Total,[8],88.1%
same,Length of Egg Galleries Without Brood,[8],19.6 cm
same,Length of Egg Galleries Without Brood % of Total,[8],11.9%
same,Mean # of Ips caught/trap,[8],1.5
same,Number of Egg Galleries Total,[8],18.0
same,Number of Egg Galleries With Brood % of Total,[8],81.1%
same,Number of Egg Galleries With Brood No.,[8],14.6
same,Number of Egg Galleries Without Brood % of Total,[8],18.9%
same,Number of Egg Galleries Without Brood No.,[8],3.4
same,Nuptial Chambers Total,[8],7.2
same,Nuptial Chambers With Egg Galleries % of Total,[8],69.4%
same,Nuptial Chambers With Egg Galleries No.,[8],5.0
same,Nuptial Chambers Without Egg Galleries % of Total,[8],30.6%
same,Nuptial Chambers Without Egg Galleries No.,[8],2.2
